Laboratory results taken from PMC5963591, “Bitopic Binding Mode of an M1 Muscarinic Acetylcholine Receptor Agonist Associated with Adverse Clinical Trial Outcomes” (Molecular Pharmacology, 2018).

Key:
[1] = biological target: T1, human mAChR M1 (Homo sapiens, UniProt P11229); experiment: [3H]-NMS competition binding, CHO membranes, M1
T1 construct: purchased PerkinElmer; host or cells: CHO
Experimental: (§1) For competition binding experiments at M1, M2, M3, M4, and M5 mAChRs, CHO membranes were purchased from PerkinElmer. All experiments were performed in assay buffer of the following composition: 20 mM HEPES, 100 mM NaCl, and 10 mM MgCl2, pH 7.5, and used 10 µg protein/well in a total assay volume of 1 ml using deep well blocks. […] All assay incubations were initiated by the addition of membrane suspensions and deep well blocks were shaken for 5 minutes to ensure complete mixing. Incubation was then carried out for 2 hours at 21°C. Binding reactions were terminated by rapid filtration through GF/A filters (PerkinElmer) presoaked with 0.5% (w/v) polyethylenimine for 1 hour. Filters were then washed three times with 1 ml ice-cold assay buffer.
(§2) Inhibition binding data were curve-fit using GraphPad Prism 6 to derive the potency (IC50) of the test compound. The equilibrium dissociation constant (KI) of the test compound was then calculated with the Cheng–Prusoff equation: KI = IC50/[1 + ([L]/KD)] using the KD value derived separately from saturation binding studies.

[2] = biological target: T2, humanized M1 DREADD (Homo sapiens, UniProt P11229, A196G/Y106C); experiment: IP1 accumulation and ERK1/2 phosphorylation at M1 DREADD, CHO Flp-In cells; type: cell-based
T2 construct: expressed in transfected cells; host or cells: CHO Flp-In
T2 sequence (P11229 whole entry Y106C/A196G): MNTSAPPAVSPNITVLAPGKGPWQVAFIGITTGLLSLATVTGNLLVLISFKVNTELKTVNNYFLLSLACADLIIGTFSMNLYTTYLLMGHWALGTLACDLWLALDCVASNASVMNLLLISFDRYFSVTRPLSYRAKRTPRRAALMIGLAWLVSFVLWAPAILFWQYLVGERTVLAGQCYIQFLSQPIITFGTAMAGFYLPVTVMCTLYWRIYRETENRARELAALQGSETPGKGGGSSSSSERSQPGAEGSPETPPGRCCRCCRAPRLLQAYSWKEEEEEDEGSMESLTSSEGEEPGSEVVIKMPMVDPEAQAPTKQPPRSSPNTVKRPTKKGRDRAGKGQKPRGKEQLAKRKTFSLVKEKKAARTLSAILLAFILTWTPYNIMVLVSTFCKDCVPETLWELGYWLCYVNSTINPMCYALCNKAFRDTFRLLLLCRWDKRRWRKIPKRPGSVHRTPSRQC

[3] = biological target: T3, human mAChR M3 (Homo sapiens, UniProt P20309); experiment: [3H]-NMS competition binding, CHO membranes, M3; conditions: compared with other subtypes
T3 construct: purchased PerkinElmer; host or cells: CHO
T3 sequence (P20309 whole entry): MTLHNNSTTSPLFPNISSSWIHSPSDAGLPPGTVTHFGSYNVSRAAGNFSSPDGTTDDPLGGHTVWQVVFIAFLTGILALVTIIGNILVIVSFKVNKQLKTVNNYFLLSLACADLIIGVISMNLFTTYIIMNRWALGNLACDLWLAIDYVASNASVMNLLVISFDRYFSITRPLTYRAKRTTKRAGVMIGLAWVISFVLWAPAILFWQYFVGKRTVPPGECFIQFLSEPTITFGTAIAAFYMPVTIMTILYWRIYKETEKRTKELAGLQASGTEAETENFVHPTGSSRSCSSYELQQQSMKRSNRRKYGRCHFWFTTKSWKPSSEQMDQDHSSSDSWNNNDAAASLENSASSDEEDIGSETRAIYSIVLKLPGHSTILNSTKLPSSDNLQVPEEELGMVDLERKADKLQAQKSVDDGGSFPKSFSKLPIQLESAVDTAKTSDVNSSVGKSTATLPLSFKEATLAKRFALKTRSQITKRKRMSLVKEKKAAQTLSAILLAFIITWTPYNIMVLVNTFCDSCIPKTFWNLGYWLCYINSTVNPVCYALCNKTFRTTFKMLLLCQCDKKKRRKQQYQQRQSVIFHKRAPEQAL
Experimental: as §1, §2

[4] = biological target: T4, human mAChR M2 (Homo sapiens, UniProt P08172); experiment: [3H]-NMS competition binding, CHO membranes, M2
T4 construct: purchased PerkinElmer; host or cells: CHO
T4 sequence (P08172 whole entry): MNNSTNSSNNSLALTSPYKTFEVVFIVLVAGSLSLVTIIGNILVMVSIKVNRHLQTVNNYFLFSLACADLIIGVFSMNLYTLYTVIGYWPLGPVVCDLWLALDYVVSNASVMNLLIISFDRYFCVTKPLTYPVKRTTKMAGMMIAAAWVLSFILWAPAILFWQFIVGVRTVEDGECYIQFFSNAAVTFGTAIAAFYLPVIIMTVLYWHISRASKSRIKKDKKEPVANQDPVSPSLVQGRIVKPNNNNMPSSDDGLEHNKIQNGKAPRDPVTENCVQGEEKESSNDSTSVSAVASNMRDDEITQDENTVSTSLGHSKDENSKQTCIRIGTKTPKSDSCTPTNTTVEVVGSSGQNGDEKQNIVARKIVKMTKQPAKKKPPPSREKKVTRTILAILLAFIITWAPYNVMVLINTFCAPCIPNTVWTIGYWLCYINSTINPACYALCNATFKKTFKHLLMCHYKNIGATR
Experimental: as §1, §2

[5] = biological target: T2, humanized M1 DREADD; experiment: Equilibrium [3H]-NMS binding, CHO Flp-In cell monolayers, M1 DREADD
Experimental: (§3) Prior to the experiment, cells were washed with 100 μl phosphate-buffered saline. […] Binding was terminated by rapid aspiration followed by two washes with 200 μl ice-cold 0.9% NaCl. Bound radioactivity was determined by liquid scintillation (Ultima Gold; PerkinElmer, Boston, MA) counting. Nonspecific binding was determined in the presence of 10 μM atropine.
as §2

[6] = biological target: T5, M3 mAChR (isolated rat ileum) (Rattus norvegicus, UniProt P08483); experiment: Isolated rat ileum contraction; conditions: single experiment
T5 construct: from tissue; host or cells: ileum of adult Wistar rats
T5 sequence (P08483 whole entry): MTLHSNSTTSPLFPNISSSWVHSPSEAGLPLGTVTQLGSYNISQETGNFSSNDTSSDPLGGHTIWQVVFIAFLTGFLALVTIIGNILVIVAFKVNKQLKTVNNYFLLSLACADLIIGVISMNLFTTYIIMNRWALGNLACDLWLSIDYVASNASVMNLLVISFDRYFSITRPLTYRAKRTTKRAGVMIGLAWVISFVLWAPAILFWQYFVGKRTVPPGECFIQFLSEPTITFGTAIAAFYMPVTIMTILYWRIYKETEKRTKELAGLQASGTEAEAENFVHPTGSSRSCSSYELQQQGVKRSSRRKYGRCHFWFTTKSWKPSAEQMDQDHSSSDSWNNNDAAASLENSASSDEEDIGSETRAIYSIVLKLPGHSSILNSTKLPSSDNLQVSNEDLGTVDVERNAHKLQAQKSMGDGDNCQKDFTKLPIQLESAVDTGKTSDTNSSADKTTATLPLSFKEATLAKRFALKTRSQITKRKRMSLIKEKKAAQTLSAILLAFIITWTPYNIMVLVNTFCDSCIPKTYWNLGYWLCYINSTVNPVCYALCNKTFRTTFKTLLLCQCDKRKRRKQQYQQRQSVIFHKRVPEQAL
Experimental: Adult Wistar rats were humanely euthanized and the left atria and the ileum were placed in an organ bath containing oxygenated Tyrode solution. Measurement of negative inotropic responses in atria or contraction of ileum was performed as described by [Lambrecht et al. (1989)]. For atrial responses, ligands were administered for 5 minutes at 32°C in McEwen’s buffer (pH 7.4) in a bath volume of 10 ml. […] For rat ileum experiments, ligands were administered for 5 minutes at 32°C in Krebs’ buffer (pH 7.4) in a bath volume of 10 ml. Contraction of ileum as a percentage of methacholine-induced contraction was measured, and antagonistic effects were measured by inhibition of methacholine-induced responses.

[7] = biological target: T6, M1 DREADD (Homo sapiens, UniProt P11229, A196G/Y106C); experiment: Receptor phosphorylation at serine 228, M1 DREADD, CHO Flp-In cells; type: cell-based; conditions: compared with wild type
T6 construct: HA; expressed in transfected cells; host or cells: CHO Flp-In
T6 sequence (P11229 whole entry Y106C/A196G): as the sequence (P11229 whole entry Y106C/A196G) above

[8] = biological target: T7, M4 mAChR (Homo sapiens, UniProt P08173); experiment: ERK1/2 phosphorylation, CHO cells, M4; type: cell-based
T7 construct: expressed in transfected cells; host or cells: CHO
T7 sequence (P08173 whole entry): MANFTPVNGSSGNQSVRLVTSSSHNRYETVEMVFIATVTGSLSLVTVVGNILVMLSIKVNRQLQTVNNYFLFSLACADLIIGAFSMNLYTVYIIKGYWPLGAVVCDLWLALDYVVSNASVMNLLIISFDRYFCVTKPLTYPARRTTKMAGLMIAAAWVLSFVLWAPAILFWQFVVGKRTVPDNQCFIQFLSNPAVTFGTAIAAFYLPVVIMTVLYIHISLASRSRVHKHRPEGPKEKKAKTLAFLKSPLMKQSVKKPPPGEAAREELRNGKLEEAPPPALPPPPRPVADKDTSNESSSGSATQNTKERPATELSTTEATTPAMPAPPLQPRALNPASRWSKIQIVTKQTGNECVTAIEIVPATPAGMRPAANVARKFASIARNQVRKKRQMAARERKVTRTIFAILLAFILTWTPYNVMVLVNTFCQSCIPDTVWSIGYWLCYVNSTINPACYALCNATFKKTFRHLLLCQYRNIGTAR

[9] = biological target: T8, M3 mAChR (Homo sapiens, UniProt P20309); experiment: ERK1/2 phosphorylation, CHO cells, M3; type: cell-based
T8 construct: expressed in transfected cells; host or cells: CHO
T8 sequence (P20309 whole entry): as the sequence (P20309 whole entry) above

[10] = biological target: T9, human mAChR M5 (Homo sapiens, UniProt P08912); experiment: [3H]-NMS competition binding, CHO membranes, M5
T9 construct: purchased PerkinElmer; host or cells: CHO
T9 sequence (P08912 whole entry): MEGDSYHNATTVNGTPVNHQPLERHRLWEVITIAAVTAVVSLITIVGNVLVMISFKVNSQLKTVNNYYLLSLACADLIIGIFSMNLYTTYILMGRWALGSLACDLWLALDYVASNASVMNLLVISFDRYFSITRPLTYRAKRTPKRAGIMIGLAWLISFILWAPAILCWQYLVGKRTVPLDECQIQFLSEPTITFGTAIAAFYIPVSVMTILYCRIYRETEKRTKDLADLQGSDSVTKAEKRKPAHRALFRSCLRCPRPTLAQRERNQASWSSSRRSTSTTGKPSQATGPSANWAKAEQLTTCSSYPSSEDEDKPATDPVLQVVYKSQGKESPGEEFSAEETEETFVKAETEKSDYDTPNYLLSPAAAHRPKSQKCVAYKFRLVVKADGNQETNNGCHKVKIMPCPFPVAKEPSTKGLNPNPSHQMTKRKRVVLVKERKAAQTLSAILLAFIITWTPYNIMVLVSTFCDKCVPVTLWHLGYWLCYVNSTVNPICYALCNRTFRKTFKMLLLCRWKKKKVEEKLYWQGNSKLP
Experimental: as §1, §2

[11] = biological target: T10, human M1 mAChR (Homo sapiens, UniProt P11229); experiment: Kinetic [3H]-NMS binding (dissociation) in membranes; set-up: expressed in transfected cells; host or cells: CHO Flp-In; conditions: compound 10 μM plus atropine 10 μM
T10 sequence (P11229 1-460): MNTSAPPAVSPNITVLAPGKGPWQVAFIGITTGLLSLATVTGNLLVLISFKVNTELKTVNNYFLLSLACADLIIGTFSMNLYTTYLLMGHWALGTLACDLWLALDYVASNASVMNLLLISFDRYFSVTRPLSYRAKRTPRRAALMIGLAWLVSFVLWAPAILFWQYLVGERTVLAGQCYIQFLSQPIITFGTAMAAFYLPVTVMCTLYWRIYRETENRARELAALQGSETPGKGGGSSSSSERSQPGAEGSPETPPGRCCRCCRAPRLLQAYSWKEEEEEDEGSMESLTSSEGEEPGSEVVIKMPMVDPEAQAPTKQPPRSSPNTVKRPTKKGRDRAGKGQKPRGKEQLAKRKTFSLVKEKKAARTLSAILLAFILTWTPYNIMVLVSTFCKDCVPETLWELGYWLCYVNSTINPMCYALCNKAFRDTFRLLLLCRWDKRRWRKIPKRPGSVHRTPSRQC
Experimental: Reactions were terminated by rapid filtration onto GF/B filter paper (Whatman, Maidstone, UK) and three washes with 3 ml ice-cold 0.9% NaCl using a Brandel harvester (M-24TI; Brandel, Fort Lauderdale, FL). Membrane bound radioactivity was determined by liquid scintillation (Ultima Gold; PerkinElmer) counting.

[12] = biological target: T10, human M1 mAChR; experiment: IP1 accumulation after receptor alkylation with phenoxybenzamine (functional interaction with ACh)
[13] = biological target: T10, human M1 mAChR; experiment: Equilibrium [3H]-NMS binding, CHO Flp-In cell monolayers, wild-type M1; set-up: expressed in transfected cells; host or cells: CHO Flp-In
Experimental: as §3, §2

- Ki [1]: 1 µM
- potency and efficacy at the M1 DREADD compared with the wild-type receptor [2]: comparable potency and efficacy
- affinity for the M3 mAChR [3]: much lower affinity
- Ki [4]: 3.98 µM
- Ki [5]: 1 µM
- EC50 [6]: 7 µM
- rat ileum contraction, % of maximal methacholine-induced contraction [6]: approximately 50%
- IC50 ([6]; read-out: IC50, inhibition of methacholine-induced contraction of rat ileum): 46 µM
- phosphorylation at serine 228 [7]: unchanged
- functional activity in ERK1/2 phosphorylation [8]: partial agonist activity
- functional activity in ERK1/2 phosphorylation [9]: devoid of activity
- Ki [10]: 6.31 µM
- effect on the [^3H]-NMS dissociation rate [11]: no effect
- Kb [12]: 0.631 µM
- agonist effect in IP1 accumulation after phenoxybenzamine ([12]; cells treated with 3 μM phenoxybenzamine): no agonist effect
- Ki [13]: 0.316 µM
- inhibition of [^3H]-NMS binding ([13]; [^3H]-NMS 0.5 nM, CHO Flp-In cell monolayers): fully inhibited
SMILES: Cc1cc(F)c2[nH]c(=O)n(C3CCN(C4CCOCC4)CC3)c2c1 [GSK1034702, 7-fluoro-5-methyl-3-[1-(oxan-4-yl)piperidin-4-yl]-1H-benzimidazol-2-one]
